Results from US6011014A, “Peptide T and related peptides in the treatment of inflammation, including multiple sclerosis” (Advanced Immunit, Inc., priority 1998, dated 2000).
Square brackets hold non-standard residues; d marks the D form. Peptide text beside a SMILES is read from it.

Tests used:
[1] = pharmacokinetics of Peptide T; settings: following administration in vivo
Excerpt: Initial research in this area was focused on the CNS for two reasons: a high concentration of CD4 molecules was found on neurons and one of the major effect of HIV infection is the development of neurocognitive dysfunction.
1. Macrophages may be more sensitive to Peptide T than are T cells, since T cells receive many more potential activating signals than the CD4/MHC II interaction. Thus macrophages may be down regulated by Peptide T administration on the first day of in vitro culture inhibiting their ability to present mitogens and antigens to T cells. B cells can act as APC in place of macrophages when presenting antigen, but not when presenting mitogens which are antigen non-specific (explaining the results of Table III). Resting B cells are resistant to Peptide T as they are CD4 negative. In the presence of a single dose of Peptide T, they could present antigen to T cells allowing proliferation of PBMC in response to antigen. When Peptide T is given on a daily basis in cultured T cells, which may be less sensitive to the effects of Peptide T, then macrophages may be inhibited. Daily administration of Peptide T in vivo, may not function as it does on a daily basis in vitro, since the half life of Peptide T in vivo is shorter than in vitro. In vitro serum supplements are heat inactivated to destroy proteolytic enzymes which actively degrade Peptide T in vivo. […]

[2] = tolerability of Peptide T therapy; assay type: in vivo, human; settings: patients
Excerpt: Cyclosporine is an anti-inflammatory drug that inhibits lymphocyte proliferation by inhibiting IL-2 and IFN γ gene transcription by binding to and inactivating cyclophilin, an isomerase required for signal transduction (Halloran et al, Clin. Biochem. 24 3-7 (1991)). […] Cyclosporine induced side effects include renal tubular atrophy, nephrotoxicity, hypertension, hirsutism, gingival hypertrophy, tremors, convulsions and paresthesia (Briggs J.D. Immunol. Lett. 29 89-94 (1991)).

[3] = tested on: PBMC; test: mitogen-induced lymphoproliferation (Example 17, 20); assay type: cell-based, human; settings: Con A-induced proliferation measured daily, 10^-9 M; FIG. 3
Protocol: Concanavalin A (Con A), pokeweed mitogen, (PWM) and phytohaemagglutin-P (PHA-P) were obtained from Sigma Chemical Co. (St. Louis, Mo., U.S.A.). Peptide T was synthesised by Carlbiotech Ltd (Copenhagen, Denmark) and supplied as the chloride salt at 8.5 mg/ml in 0.9% benzyl alcohol as a preservative and was stored at 4° C. Peptide T was diluted to working solutions in culture medium (RPMI). Dilute solutions of Peptide T were prepared fresh from stock Peptide T for each experiment. ^3 H-thymidine (5 Ci/mmol) was obtained from Amersham.
Isolation of PBMC: Whole blood from healthy, adult volunteers was drawn into heparin and peripheral blood mononuclear cells (PBMC) isolated by density gradient centrifugation on HISTOPAQUE™ (Sigma Chemical Co). PBMC were removed from the interface, washed three times in RPMI containing gentamycin (100 μg/ml) and resuspended to 1×10^6 PBMC/ml in RPMI containing 10% foetal bovine serum and gentamycin. 10^5 PBMC were cultured in the presence of 100 μl of mitogen suspension in 96 well plates. […] The amount of incorporated ^3 H-thymidine was determined using a BECKMAN™ LS8000 liquid scintillation counter and proliferation expressed as either counts per minute (cpm) or as a proliferation index (PI). […]
10^5 PBMC were cultured in the presence of PWM, Con A or PHA (see Example 17). […] Data were analysed by two sample ANOVA using 95% confidence limits.

[4] = tested on: MO/MAC cytotoxicity against K562 target cells; test: macrophage cytotoxicity assay; assay type: cell-based, human; settings: Peptide T added with target cells (step 2) or every day; FIG. 7
Protocol: The MO/MAC cytotoxicity assay is a two step assay. After isolation of adherent cells (mainly MO/MAC) from PBMC, MO/MAC are activated by lymphokines (including IFN gamma and LPS. Subsequent to washing which removes activators, ^3 H-thymidine labelled K562 target cells were added to activated MO/MAC and incubated for 3 days. The degree of cytotoxicity was proportional to the amount of radioactive label released into the culture supernatant, is shown in the following scheme: […]

[5] = tested on: Mice bearing Meth A ascites tumours; test: LPS toxicity in Meth A ascites tumour bearing mice; assay type: in vivo, mouse; settings: 100 μg LPS s.c. + 1 mg analogue; for % mice surviving 41 hours: LPS + BSA 60; for % mice with diarrhoea at 19 hrs / % mice with exudate at 19 hrs: LPS + BSA 100
Protocol: Mice bearing Meth A ascites tumours were given 100 μg LPS subcutaneously with either bovine serum albumin (BSA) or peptide T analogue (504 or 505, 1 mg). The number of animals showing signs of LPS toxicity (diarrhoea, exudate from the eyes and general level of activity) in each group was recorded at 19, 24 and 41 hours after injection. At the completion of the experiment the number of surviving animals was recorded (see Table II below) and the survivors bled for later determination of TNF, IL-1 , IL-6 and RNI levels.

[6] = tested on: human neutrophils; test: TNF-induced neutrophil chemiluminescence; assay type: cell-based; settings: FIG. 13
Protocol: (§1) Neutrophils were isolated from whole blood from healthy blood donors. Separation was achieved by the rapid-single-step method of centrifugation of whole blood on FICOLL-HYPAQUE™. These were >99% viable and usually >98% pure.
TNF was a recombinant product produced in E. coli. Peptide T and analogue 505 (D-Ser-Ser-D-Thr-Thr-D-Thr-Thr-Tyr-D-Thr) were resuspended in Hank's Balanced Salt Solution (HBSS).
(§2) To 100 μl of 500-1000 U/ml of TNF was added 10 μl of peptide and after 5 min 100 μl of 1×10^7 neutrophils/ml was added. The cells further incubated at 37° C. /20 min and then tested for chemiluminescence activity. In some cases an agonist such as fMLP (10^-7 M) was added. Chemiluminescence was measured in a luminometer (LKB). The results for Peptide T are presented in FIG. 12 as peak rate of CL release. Lucigenin-dependent chemiluminescence was measured: this represents superoxide measurement. In another set of experiments the effects of analogue 505 on the LPS-induced neutrophil chemiluminescence were examined. In this case the LPS was essentially substituted for the TNF. The concentration of LPS was 0.005 μg/ml.

[7] = tested on: human neutrophils; test: LPS-induced neutrophil chemiluminescence; assay type: cell-based; settings: LPS 0.005 μg/ml; FIG. 14
Protocol: as §1, §2

Row | Compound | peak plasma concentrations [1] [nM] | side effects attributable to Peptide T therapy [2] | cytotoxicity for responding lymphocytes [3] | cytotoxicity of activated MO/MAC [4] | % mice surviving 41 hours [5] [%] | % mice with diarrhoea at 19 hrs [5] [%] | % mice with exudate at 19 hrs [5] [%] | TNF priming and activation of human neutrophils (chemiluminescence) [6] | LPS activation of human neutrophils (chemiluminescence) [7]
1 | C[C@@H](N)C(=O)N[C@@H](CO)C(=O)N[C@H](C(=O)N[C@H](C(=O)N[C@H](C(=O)N[C@@H](CC(N)=O)C(=O)N[C@@H](Cc1ccc(O)cc1)C(=O)N[C@H](C(N)=O)[C@@H](C)O)[C@@H](C)O)[C@@H](C)O)[C@@H](C)O [Peptide T, D-Ala-Ser-Thr-Thr-Thr-Asn-Tyr-Thr-Amide] | 55 | no significant side effects | not cytotoxic | inhibit the cytotoxicity |  |  |  |  | 
2 | C[C@H](O)[C@@H](NC(=O)[C@H](Cc1ccc(O)cc1)NC(=O)[C@@H](NC(=O)[C@H](NC(=O)[C@@H](NC(=O)[C@H](NC(=O)[C@H](CO)NC(=O)[C@H](N)CO)[C@H](C)O)[C@@H](C)O)[C@H](C)O)[C@@H](C)O)C(N)=O [compound 505, H-D-Ser-Ser-D-Thr-Thr-D-Thr-Thr-Tyr-D-Thr-NH2] (H-[dS]S[dT]T[dT]TY[dT]-NH2) |  |  |  |  | 100 | 40 | 20 | inhibits TNF priming and activation of human neutrophils | inhibits LPS activation of human neutrophils
3 | C[C@H](O)[C@@H](NC(=O)[C@H](Cc1ccc(O)cc1)NC(=O)[C@H](CC(N)=O)NC(=O)[C@H](NC(=O)[C@@H](NC(=O)[C@H](NC(=O)[C@H](CO)NC(=O)[C@@H](C)N)[C@H](C)O)[C@@H](C)O)[C@H](C)O)C(N)=O [compound 504, H-D-Ala-Ser-D-Thr-Thr-D-Thr-Asn-Tyr-D-Thr-NH2] |  |  |  |  | 100 | 40 | 60 |  | 
